According to ChEMBL document CHEMBL1201862, “PubChem BioAssay data set” (2004):
The source made the active and inactive calls.

Legend:
[1] = Luminescence Cell-Based Dose Response HTS to Identify Activators of Luciferase Translation or Activity in H4-C Neuroglioblastoma Cells. [Related pubchem assays: 1829 (Project Summary), 1814 (Primary HTS)]; type: functional
[2] = Luminescence Cell-Based Dose HTS Response to Identify Inhibitors of 5'UTR Stem-Loop Driven Prion Protein mRNA Translation in H4-C Neuroglioblastoma Cells. [Related pubchem assays (depositor defined):AID1814, AID1827]; type: functional
[3] = Luminescence Cell-Based Dose Confirmation HTS to Identify Inhibitors of 5'UTR Stem-Loop Driven Alpha-Synuclein mRNA Translation in H4 Neuroglioblastoma Cells. [Related pubchem assays: 1827 (Project Summary), 1813 (Primary HTS)]; type: functional
[4] = Luminescence Cell-Based Dose Response HTS to Identify Inhibitors of Luciferase Translation or Activity in H4-C Neuroglioblastoma Cells. [Related pubchem assays: 1813 (Primary HTS), 1827 (Project Summary)]; type: functional
[5] = Luminescence Cell-Based Dose Retest to Confirm Activators of 5'UTR Stem-Loop Driven Alpha-Synuclein mRNA Translation in H4 Neuroglioblastoma Cells. [Related pubchem assays (depositor defined):AID1813, AID1829]; type: functional
[6] = Luminescence Cell-Based Dose Response HTS to Identify Activators of 5'UTR Stem-Loop Driven Prion Protein mRNA Translation in H4-C Neuroglioblastoma Cells. [Related pubchem assays: 1829 (Project Summary), 1814 (Primary HTS)]; type: functional
[7] = target: Intestinal-type alkaline phosphatase (Homo sapiens, UniProt P09923); test: activation of human intestinal alkaline phosphatase – biochemical, dose response (AID 488873); type: functional
Chain of Intestinal-type alkaline phosphatase (Homo sapiens, UniProt P09923) (P09923 whole entry, the tested form may be a part): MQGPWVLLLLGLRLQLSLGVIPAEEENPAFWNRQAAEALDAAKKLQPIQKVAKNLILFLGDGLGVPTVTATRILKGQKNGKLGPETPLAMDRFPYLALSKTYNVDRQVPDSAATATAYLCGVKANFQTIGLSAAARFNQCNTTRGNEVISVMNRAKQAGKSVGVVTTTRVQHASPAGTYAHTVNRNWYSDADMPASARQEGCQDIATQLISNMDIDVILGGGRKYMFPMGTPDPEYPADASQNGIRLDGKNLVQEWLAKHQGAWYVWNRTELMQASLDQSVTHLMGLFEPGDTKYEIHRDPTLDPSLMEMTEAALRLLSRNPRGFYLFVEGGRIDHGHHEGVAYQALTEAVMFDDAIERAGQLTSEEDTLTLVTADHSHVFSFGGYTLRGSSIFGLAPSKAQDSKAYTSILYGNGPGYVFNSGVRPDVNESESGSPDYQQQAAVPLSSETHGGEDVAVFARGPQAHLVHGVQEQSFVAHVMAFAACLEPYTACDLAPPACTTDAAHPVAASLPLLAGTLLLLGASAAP

[8] = target: T1, RNA-binding protein pos-1 (Caenorhabditis elegans, UniProt G5EF15); test: inhibitors of POS-1/mex-3 RNA binding, dose response, biochemical, fluorescence polarization (AID 1964);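 also: purified POS-1 fused to maltose binding protein made in E. coli; potency of compounds blocking POS-1 binding to fluorescent RNA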
T1 sequence (G5EF15 whole entry): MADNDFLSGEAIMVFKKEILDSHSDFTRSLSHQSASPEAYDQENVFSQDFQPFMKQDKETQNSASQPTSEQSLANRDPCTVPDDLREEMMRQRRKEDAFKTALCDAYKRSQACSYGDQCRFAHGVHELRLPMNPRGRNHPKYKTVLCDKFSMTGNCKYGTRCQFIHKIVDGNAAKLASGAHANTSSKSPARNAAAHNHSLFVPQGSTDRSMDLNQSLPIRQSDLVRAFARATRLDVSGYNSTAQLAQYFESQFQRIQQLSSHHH

[9] = target: T2, Zinc finger protein mex-5 (Caenorhabditis elegans, UniProt Q9XUB2); test: MEX-5/TCR-2 RNA interaction inhibitors, dose response, biochemical, C. elegans, fluorescence polarization (AID 1960)
T2 sequence (Q9XUB2 whole entry): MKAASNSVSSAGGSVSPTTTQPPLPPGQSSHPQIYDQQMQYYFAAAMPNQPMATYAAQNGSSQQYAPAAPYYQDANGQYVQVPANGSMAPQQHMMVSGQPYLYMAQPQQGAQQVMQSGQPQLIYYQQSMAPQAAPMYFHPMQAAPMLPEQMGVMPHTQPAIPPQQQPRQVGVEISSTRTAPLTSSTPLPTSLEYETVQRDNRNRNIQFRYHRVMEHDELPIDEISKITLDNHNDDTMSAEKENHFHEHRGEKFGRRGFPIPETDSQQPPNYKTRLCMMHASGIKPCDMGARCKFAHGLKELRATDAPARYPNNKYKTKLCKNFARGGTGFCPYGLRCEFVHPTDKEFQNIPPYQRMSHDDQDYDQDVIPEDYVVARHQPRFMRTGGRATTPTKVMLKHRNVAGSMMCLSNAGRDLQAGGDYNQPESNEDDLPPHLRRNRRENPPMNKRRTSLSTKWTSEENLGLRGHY

Large T antigen = Large T antigen (Simian virus 40, UniProt P03070); type: functional, Betapolyomavirus macacae;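 also: Confirmatory-stage PubChem screen for compounds that inhibit SV40 T antigen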
Chain of Large T antigen (P03070 whole entry): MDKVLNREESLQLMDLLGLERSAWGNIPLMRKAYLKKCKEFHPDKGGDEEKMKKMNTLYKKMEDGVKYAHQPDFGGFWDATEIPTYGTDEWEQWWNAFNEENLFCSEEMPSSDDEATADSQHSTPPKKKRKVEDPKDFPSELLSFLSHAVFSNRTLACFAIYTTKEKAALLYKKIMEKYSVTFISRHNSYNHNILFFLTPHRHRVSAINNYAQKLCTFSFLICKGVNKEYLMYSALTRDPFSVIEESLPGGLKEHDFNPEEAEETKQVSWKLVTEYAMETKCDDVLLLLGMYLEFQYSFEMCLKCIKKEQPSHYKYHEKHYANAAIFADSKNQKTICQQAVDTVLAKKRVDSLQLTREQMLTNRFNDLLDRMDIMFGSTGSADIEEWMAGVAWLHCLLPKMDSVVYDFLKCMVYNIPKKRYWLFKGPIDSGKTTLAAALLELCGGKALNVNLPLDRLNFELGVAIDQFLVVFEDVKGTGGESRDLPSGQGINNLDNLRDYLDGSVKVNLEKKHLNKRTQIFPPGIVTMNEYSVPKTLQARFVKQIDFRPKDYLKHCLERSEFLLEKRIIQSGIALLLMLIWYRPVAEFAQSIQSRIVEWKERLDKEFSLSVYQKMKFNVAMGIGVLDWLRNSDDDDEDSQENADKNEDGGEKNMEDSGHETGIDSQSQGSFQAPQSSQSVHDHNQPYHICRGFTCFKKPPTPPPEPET

[10] = target: T3, Alkaline phosphatase, tissue-nonspecific isozyme (Homo sapiens, UniProt P05186); test: TNAP enzyme activators, dose response, selectivity assay for mouse IAP activator project, biochemical, TNAP isozyme, mouse IAP uHTS hits (AID 488880); type: functional
T3 sequence (P05186 whole entry): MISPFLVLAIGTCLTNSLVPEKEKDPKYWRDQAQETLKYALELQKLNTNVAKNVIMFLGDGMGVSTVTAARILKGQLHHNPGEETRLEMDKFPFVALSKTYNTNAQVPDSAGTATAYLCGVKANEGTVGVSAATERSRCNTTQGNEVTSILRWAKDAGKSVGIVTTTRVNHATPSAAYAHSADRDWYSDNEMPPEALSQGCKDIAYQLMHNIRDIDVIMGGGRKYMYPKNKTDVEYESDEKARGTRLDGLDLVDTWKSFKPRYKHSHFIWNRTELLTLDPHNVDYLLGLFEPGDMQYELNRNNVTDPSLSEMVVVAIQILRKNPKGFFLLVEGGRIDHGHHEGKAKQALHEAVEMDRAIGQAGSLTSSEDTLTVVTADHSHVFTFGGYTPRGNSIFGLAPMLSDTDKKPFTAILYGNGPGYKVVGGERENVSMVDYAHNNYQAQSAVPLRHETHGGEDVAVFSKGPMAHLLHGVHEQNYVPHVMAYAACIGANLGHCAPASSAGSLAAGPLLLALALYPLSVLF

[11] = target: Intestinal-type alkaline phosphatase (Mus musculus, UniProt P24822); test: mouse intestinal alkaline phosphatase activators, dose response, biochemical, luminescence, uHTS hits (AID 488783); type: functional
Chain of Intestinal-type alkaline phosphatase (Mus musculus, UniProt P24822) (P24822 whole entry): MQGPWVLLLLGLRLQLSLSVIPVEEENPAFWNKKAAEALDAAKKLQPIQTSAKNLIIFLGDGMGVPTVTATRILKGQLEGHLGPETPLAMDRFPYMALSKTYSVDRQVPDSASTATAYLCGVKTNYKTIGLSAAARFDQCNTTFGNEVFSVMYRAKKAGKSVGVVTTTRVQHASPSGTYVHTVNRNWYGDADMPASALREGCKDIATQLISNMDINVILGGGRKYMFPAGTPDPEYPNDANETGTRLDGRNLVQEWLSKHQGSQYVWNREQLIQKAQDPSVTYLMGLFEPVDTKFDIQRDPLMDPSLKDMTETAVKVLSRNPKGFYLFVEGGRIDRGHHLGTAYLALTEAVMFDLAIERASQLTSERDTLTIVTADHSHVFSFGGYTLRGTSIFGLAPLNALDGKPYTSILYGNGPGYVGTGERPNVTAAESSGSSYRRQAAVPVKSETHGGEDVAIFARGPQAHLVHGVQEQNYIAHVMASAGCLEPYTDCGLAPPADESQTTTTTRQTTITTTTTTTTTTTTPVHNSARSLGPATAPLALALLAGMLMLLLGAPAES

Estrogen receptor [12] = target: T4, Estrogen receptor (Homo sapiens, UniProt P03372);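 also: potency for inhibiting coactivator peptide recruitment to the receptor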
T4 sequence (P03372 whole entry): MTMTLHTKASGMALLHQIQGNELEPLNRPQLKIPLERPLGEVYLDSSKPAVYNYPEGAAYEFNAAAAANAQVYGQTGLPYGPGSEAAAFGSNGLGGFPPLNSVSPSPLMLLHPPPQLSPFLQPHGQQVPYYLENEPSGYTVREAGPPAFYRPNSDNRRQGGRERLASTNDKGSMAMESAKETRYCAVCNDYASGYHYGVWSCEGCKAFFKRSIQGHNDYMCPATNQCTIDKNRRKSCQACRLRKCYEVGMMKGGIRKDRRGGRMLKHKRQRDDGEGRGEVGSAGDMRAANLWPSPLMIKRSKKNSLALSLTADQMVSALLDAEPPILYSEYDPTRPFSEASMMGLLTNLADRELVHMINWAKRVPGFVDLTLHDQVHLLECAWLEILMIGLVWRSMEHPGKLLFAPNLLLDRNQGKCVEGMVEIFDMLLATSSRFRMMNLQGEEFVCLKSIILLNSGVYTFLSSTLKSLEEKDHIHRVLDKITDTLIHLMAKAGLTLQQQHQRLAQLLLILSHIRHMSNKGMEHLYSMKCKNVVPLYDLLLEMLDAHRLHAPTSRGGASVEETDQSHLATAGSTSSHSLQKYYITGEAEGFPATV

SUMO-activating enzyme [13] = target: T5, SUMO-activating enzyme (Homo sapiens, UniProt Q9UBT2); test: inhibitors of in vitro SUMOylation cascade, primary screen, biochemical, HTRF, uHTS (AID 2006); type: protein-complex assay
T5 sequence (Q9UBE0 whole entry, the tested form may be a part): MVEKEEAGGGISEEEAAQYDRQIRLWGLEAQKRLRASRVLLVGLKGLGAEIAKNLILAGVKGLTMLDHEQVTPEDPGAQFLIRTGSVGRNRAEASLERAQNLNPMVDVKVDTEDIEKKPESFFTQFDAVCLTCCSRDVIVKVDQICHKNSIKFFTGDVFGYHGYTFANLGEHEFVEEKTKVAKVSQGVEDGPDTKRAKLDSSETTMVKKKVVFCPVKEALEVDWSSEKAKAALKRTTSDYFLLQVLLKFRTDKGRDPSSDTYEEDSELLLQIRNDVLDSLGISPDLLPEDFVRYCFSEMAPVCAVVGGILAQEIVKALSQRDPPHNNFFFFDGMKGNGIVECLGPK
T5 sequence (Q9UBT2 whole entry, the tested form may be a part): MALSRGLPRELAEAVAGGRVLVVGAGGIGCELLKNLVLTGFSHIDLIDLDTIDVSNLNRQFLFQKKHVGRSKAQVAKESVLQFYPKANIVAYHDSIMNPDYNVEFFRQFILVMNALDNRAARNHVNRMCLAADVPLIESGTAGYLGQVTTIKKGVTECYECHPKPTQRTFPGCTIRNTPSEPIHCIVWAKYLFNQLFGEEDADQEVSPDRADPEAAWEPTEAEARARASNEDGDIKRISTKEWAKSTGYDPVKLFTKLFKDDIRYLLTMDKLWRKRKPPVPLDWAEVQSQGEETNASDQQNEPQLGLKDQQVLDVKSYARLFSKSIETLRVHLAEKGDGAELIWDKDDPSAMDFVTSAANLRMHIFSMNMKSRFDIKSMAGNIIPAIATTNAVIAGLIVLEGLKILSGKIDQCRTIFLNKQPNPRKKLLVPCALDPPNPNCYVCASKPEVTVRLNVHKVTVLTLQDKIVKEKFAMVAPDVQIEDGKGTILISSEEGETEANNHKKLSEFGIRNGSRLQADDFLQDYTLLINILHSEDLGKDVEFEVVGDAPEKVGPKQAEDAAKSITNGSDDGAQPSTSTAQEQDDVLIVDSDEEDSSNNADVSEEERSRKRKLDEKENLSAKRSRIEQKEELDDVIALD

Estrogen receptor [14] = target: T4, Estrogen receptor; test: potentiators of ERα–SRC-1 coactivator binding, dose response, biochemical, TR-FRET, ERα LBD (AID 737)
SUMO-activating enzyme [15] = target: T5, SUMO-activating enzyme; test: SUMOylation inhibitor hit validation, confirmation, SUMOylation inhibitor project, biochemical, AlphaScreen (AID 2018); type: functional
Cannabinoid receptor 1 = Cannabinoid receptor 1 (Homo sapiens, UniProt P21554); test: SAR analysis of antagonists of the Cannabinoid Receptor 1 using an Image-Based Assay. [Related pubchem assays (depositor defined):AID1961, AID1965]; type: functional
[16] = target: T6, G-protein coupled receptor 55 (Homo sapiens, UniProt Q9Y2T6); test: GPR55 agonists via beta-arrestin recruitment, primary screen, imaging, U2OS cells, beta-arrestin-GFP redistribution (AID 1961); type: functional
T6 sequence (Q9Y2T6 whole entry): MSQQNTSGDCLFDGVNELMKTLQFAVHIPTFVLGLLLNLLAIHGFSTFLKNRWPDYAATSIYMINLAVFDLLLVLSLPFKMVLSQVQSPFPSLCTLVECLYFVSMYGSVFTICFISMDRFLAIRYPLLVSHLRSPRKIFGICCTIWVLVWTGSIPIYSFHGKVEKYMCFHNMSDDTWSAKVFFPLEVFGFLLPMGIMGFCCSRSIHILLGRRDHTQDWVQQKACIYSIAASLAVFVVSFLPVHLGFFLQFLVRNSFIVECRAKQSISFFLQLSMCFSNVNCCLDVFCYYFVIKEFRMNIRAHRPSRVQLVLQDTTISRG

Cannabinoid receptor 2 [17] = target: T7, Cannabinoid receptor 2 (Homo sapiens, UniProt P34972); test: SAR analysis of agonists of the Cannabinoid Receptor 2 using an Image-Based Assay - Set 2. [Related pubchem assays (depositor defined):AID1961, AID1965]; type: functional
T7 sequence (P34972 whole entry): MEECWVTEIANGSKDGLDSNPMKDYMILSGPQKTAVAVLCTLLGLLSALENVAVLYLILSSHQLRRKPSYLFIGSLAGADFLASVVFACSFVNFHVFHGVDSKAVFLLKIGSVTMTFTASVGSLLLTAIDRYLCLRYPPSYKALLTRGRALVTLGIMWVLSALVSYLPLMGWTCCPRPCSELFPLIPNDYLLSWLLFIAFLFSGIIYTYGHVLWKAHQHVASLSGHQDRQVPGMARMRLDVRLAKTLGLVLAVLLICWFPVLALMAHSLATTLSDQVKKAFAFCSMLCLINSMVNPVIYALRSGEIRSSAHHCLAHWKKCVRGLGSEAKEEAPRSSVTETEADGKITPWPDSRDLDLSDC

Cannabinoid receptor 2 [18] = target: T7, Cannabinoid receptor 2; test: SAR analysis of antagonists of the Cannabinoid Receptor 2 using an Image-Based Assay - Set 2. [Related pubchem assays (depositor defined):AID1961, AID1965]; type: functional
[19] = target: T6, G-protein coupled receptor 55; test: SAR analysis of selective Agonists of GPR55 using an Image-Based Assay. [Related pubchem assays (depositor defined):AID1961, AID1965]; type: functional
Mu-type opioid receptor [20] = target: T8, Mu-type opioid receptor (Homo sapiens, UniProt P35372); test: SAR Analysis of Antagonists of the MOR Receptor using an Image-Based Assay - Set 2. [Related pubchem assays (depositor defined):AID1777, AID1785, AID1786, AID1966, AID2133, AID2136, AID2284, AID2285, AID2420]; type: functional
T8 sequence (P35372 whole entry): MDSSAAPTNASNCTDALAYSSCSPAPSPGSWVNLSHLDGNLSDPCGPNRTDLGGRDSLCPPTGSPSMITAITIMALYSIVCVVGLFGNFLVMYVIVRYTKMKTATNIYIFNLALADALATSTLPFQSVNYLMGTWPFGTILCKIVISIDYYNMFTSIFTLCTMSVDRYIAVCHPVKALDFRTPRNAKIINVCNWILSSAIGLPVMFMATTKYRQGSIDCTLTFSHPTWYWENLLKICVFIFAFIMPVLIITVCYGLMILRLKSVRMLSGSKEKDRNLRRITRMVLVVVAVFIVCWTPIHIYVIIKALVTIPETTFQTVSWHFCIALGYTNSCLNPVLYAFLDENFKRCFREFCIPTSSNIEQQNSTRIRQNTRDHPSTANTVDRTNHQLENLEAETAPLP

[21] = target: T9, Delta-type opioid receptor (Homo sapiens, UniProt P41143); test: SAR Analysis of Agonists of the DOR Receptor using an Image-Based Assay - Set 2. [Related pubchem assays (depositor defined):AID1777, AID1785, AID1786, AID1966, AID2133, AID2136, AID2284, AID2285, AID2370]; type: functional
T9 sequence (P41143 whole entry): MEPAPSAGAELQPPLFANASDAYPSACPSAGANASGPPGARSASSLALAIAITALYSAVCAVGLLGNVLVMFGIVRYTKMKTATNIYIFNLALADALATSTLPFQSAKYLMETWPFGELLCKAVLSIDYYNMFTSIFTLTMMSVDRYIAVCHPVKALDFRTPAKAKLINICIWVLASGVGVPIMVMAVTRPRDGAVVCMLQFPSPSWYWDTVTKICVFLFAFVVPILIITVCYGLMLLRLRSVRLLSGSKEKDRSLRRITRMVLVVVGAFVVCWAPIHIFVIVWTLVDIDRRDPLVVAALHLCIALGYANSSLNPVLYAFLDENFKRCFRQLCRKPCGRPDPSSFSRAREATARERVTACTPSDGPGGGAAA

[22] = target: T10, Kappa-type opioid receptor (Homo sapiens, UniProt P41145); test: SAR analysis of Agonists of the Kappa Opioid Receptor (KOR) using an Image-Based Assay - Set 2. [Related pubchem assays (depositor defined):AID1777, AID1786, AID1966, AID2133, AID2136, AID2284, AID2285, AID2359]; type: functional
T10 sequence (P41145 whole entry): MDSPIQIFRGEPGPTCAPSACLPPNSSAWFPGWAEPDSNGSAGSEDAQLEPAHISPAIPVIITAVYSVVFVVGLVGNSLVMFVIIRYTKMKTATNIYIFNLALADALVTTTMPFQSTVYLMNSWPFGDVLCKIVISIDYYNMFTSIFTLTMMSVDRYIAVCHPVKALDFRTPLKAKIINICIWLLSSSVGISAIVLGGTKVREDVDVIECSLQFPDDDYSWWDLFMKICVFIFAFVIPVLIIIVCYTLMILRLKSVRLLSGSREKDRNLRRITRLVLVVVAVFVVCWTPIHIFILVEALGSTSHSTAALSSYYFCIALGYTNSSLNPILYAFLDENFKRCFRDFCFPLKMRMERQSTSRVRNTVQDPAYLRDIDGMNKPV

[23] = target: T9, Delta-type opioid receptor; test: SAR Analysis of Antagonists of the DOR Receptor using an Image-Based Assay - Set 2. [Related pubchem assays (depositor defined):AID1777, AID1785, AID1786, AID1966, AID2133, AID2136, AID2284, AID2285, AID2357]; type: functional
Mu-type opioid receptor [24] = target: T8, Mu-type opioid receptor; test: SAR Analysis of Agonists of the MOR Receptor using an Image-Based Assay - Set 2. [Related pubchem assays (depositor defined):AID1777, AID1785, AID1786, AID1966, AID2133, AID2136, AID2284, AID2285, AID2352]; type: functional
[25] = target: T10, Kappa-type opioid receptor; test: SAR analysis of Antagonists of the Kappa Opioid Receptor (KOR) using an Image-Based Assay - Set 2. [Related pubchem assays (depositor defined):AID1777, AID1785, AID1786, AID1966, AID2133, AID2136, AID2284, AID2285, AID2348]; type: functional
[26] = target: T10, Kappa-type opioid receptor; test: SAR analysis of small molecule agonists of the kappa opioid receptor via a luminescent beta-arrestin assay - Set 2. [Related pubchem assays (depositor defined):AID1777, AID1785, AID1786, AID1966, AID2133, AID2136, AID2284, AID449737]; type: functional
[27] = target: Voltage-dependent T-type calcium channel subunit alpha-1H (Homo sapiens, UniProt O95180); test: Cav3.2 T-type channel inhibitors, synthesized analogs, SAR follow-up, cell-based, synthetic library set 2, HEK293 HH8, Fluo-4 (AID 493023); type: functional

With CC[n+]1c(/C=C/C=C/c2ccc(N(C)C)cc2)sc2ccccc21 the EC50 [1] was 2.69 µM (inconclusive), the EC50 [2] was 1.54 µM (active) and the EC50 [3] was 26.3 µM (active). For the same compound, the EC50 [4] was 2.69 µM (active), the EC50 [5] was 26.3 µM (inconclusive) and the EC50 [6] was 1.54 µM (inconclusive).

With Oc1ccc(-c2csc(Nc3ccccn3)n2)cc1O the EC50 [7] was 48.7 µM (active), the EC50 [8] was 74.1 µM (active) and the EC50 [9] was 17.3 µM (active). For the same compound, the IC50 (Large T antigen) was 51.7 µM (active), the EC50 [10] was 47.9 µM (active) and the EC50 [11] was 24.9 µM (active).

In the case of O=c1cc(CSc2nnnn2-c2ccccc2)nc(Nc2ccc(F)cc2)[nH]1, the IC50 (Estrogen receptor [12]) is reported as > 50 µM (not active), the IC50 (SUMO-activating enzyme [13]) is reported as 6.47 µM (active) and the EC50 (Estrogen receptor [14]) is reported as 12.5 µM (active). The IC50 (SUMO-activating enzyme [15]) was 11.5 µM (active).

With COc1ccc(S(=O)(=O)N2CCOCC2)cc1NC(=O)c1cc2c(s1)CCCC2 the IC50 (Cannabinoid receptor 1) was > 32 µM (inactive), the EC50 [16] was 0.524 µM (active) and the EC50 (Cannabinoid receptor 2 [17]) was > 32 µM (inactive). The IC50 (Cannabinoid receptor 2 [18]) was > 32 µM (inactive) and the EC50 [19] was 0.305 µM (active).

For Cc1ccc(CSc2nnc(-c3ccccn3)n2Cc2ccco2)cc1, the IC50 (Mu-type opioid receptor [20]) was > 32 µM (inactive), the EC50 [21] was > 32 µM (inactive) and the EC50 [22] was 5.21 µM (active). The IC50 [23] was > 32 µM (inactive), the EC50 (Mu-type opioid receptor [24]) was > 32 µM (inactive) and the IC50 [25] was > 32 µM (inactive). For the same compound, the EC50 [26] was 6.21 µM (active).

For O=C(N[C@@H]1CCCN(Cc2ccccc2)C1)c1cc(Cl)cc(Cl)c1, the EC50 [27] was 10 µM (active).
